EC90 and melting point data for three compounds are collected here from patent US8957045B2, “Nucleoside phosphoramidates” (Gilead Pharmasset LLC, priority 2008, dated 2015).

Like-named read-outs stand apart in the source and are kept apart here.

Data set [1] deals with HCV replicon RNA-containing Huh7 cells (clone A cells). The data set can be described thus: HCV replicon assay. It is filed as cell-based. The following applies: 4 days incubation, replicon RNA by RT-PCR, EC90 = 1-log10 reduction (ΔCt of 3.3), read-out: CloneA EC90. Here is the method: HCV replicon RNA-containing Huh7 cells (clone A cells; Apath, LLC, St. Louis, Mo.) were kept at exponential growth in Dulbecco's modified Eagle's medium (high glucose) containing 10% fetal bovine serum, 4 mM L-glutamine and 1 mM sodium pyruvate, 1× nonessential amino acids, and G418 (1,000 μg/ml). Antiviral assays were performed in the same medium without G418. Cells were seeded in a 96-well plate at 1,500 cells per well, and test compounds were added immediately after seeding. Incubation time 4 days. At the end of the incubation step, total cellular RNA was isolated (RNeasy 96 kit; Qiagen). Replicon RNA and an internal control (TaqMan rRNA control reagents; Applied Biosystems) were amplified in a single-step multiplex RT-PCR protocol as recommended by the manufacturer. The HCV primers and probe were designed with Primer Express software (Applied Biosystems) and covered highly conserved 5′-untranslated region (UTR) sequences (sense primer: 5′-AGCCATGGCGTTAGTA(T)GAGTGT-3′ (SEQ ID NO:1); antisense primer: 5′-TTCCGCAGACCΔCTATGG-3′ (SEQ ID NO:2); and probe: 5′-FAM-[…]-TAMRA-3′ (SEQ ID NO:3)).
To express the antiviral effectiveness of a compound, the threshold RT-PCR cycle of the test compound was subtracted from the average threshold RT-PCR cycle of the no-drug control (ΔCtHCV). A ΔCt of 3.3 equals a 1-log 10 reduction (equal to the 90% effective concentration [EC90]) in replicon RNA levels. The cytotoxicity of the test compound could also be expressed by calculating the ΔCTRNA values. The ΔΔCt specificity parameter could then be introduced (ΔCtHCV-ΔCtRNA), in which the levels of HCV RNA are normalized for the rRNA levels and calibrated against the no-drug control.
Background: In antiviral work, replicon cells carry a viral genome segment that copies itself.

As for `COc1nc(N)nc2c1ncn2[C@@H]1O[C@H](COP(=O)(N[C@@H](C)C(=O)OC(C)C)Oc2ccccc2)[C@@H](O)[C@@]1(C)F` (stereo partly drawn) [Compound 11, (2S)-isopropyl 2-((((2R,3R,4R,5R)-5-(2-amino-6-methoxy-9H-purin-9-yl)-4-fluoro-3-hydroxy-4-methyltetrahydrofuran-2-yl)methoxy) (phenoxy)phosphorylamino)propanoate], the EC90 in data set [1] (Hepatitis C virus, Huh-7, 96 h) came out at 20 nM. As to `C[C@H](NP(=O)(OC[C@H]1O[C@@H](n2cnc3c(O)nc(N)nc32)[C@](C)(F)[C@@H]1O)Oc1ccccc1)C(=O)OC1CCCC1` (stereo partly drawn) [Compound 14, (2S)-cyclopentyl 2-((((2R,3R,4R,5R)-5-(2-amino-6-hydroxy-9H-purin-9-yl)-4-fluoro-3-hydroxy-4-methyltetrahydrofuran-2-yl)methoxy) (phenoxy)phosphorylamino)propanoate], the melting point lay in the range of 133 to 150 °C. The EC90 in data set [1] (Hepatitis C virus, Huh-7, 96 h) was 130 nM.

For `COC(=O)[C@H](C)NP(=O)(OC[C@H]1O[C@@H](n2cnc3c(N4CCC4)nc(N)nc32)[C@](C)(F)[C@@H]1O)Oc1ccccc1` (stereo partly shown) [Compound 12], in data set [1], the concentration for an effect of 90% (EC90) amounted to 70 nM.

For orientation: EC90 means the concentration needed for an effect of 90%. As a reminder, the melting point is the temperature of the solid-liquid transition.
